Each structure is given as a SMILES string.

The test system of series [1] is HCV replicon in human hepatoma Huh-7 cell line. The series can be described thus: Anti-HCV replicon assay, EC50 (luciferase luminescence). It counts as cell-based. Particulars: Hepatitis C virus, Huh-7, 72 h. In outline: (§1)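 Cytotoxicity (CC50) read by CellTiter-Glo luminescence after 10 min, and antiviral EC50 by luciferase signal after 30 min lysis with substrate, both at room temperature. Preceding step: 3-day exposure of 6000 Huh-7 HCV replicon cells per well to compound dilution series at 37° C, 5% CO2, in 0.5% DMSO.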

The nature of series [2]: CC50 assay (CellTiter-Glo) in Huh-7 HCV replicon cells. Particulars: human. It is filed as cell-based. In outline:
as §1
Background: In ATP-based viability assays light output follows the ATP content of the culture.

`N#Cc1cc(F)ccc1-c1ccc2nc(NCc3cccc(S(N)(=O)=O)c3)nc(NC3(C(F)(F)F)CC3)c2n1` [Example 98, 3-((6-(2-cyano-4-fluorophenyl)-4-(1-(trifluoromethyl)cyclopropyl-amino)pyrido[3,2-d]pyrimidin-2-ylamino)methyl)benzene-sulfonamide]: the EC50 (usually the concentration that produces a half-maximal response) in series [1] was < 100 nM. In series [2] (Table 2, 3 days incubation), the CC50 (commonly the concentration giving 50% cytotoxicity) at 3 days fell in the range of 1 to 10 µM.
In turn, `C=Cc1ccc2nc(N[C@H](C)c3ccc(S(N)(=O)=O)cc3)nc(NCC(F)(F)F)c2n1` [Example 312, (R)-4-(1-(4-(2,2,2-trifluoro-ethylamino)-6-vinylpyrido [3,2-d]pyrimidin-2-ylamino)ethyl)benzenesulfonamide] came in with an EC50 in series [1] of 100 to 250 nM. In addition, the CC50 at 3 days in series [2] (Table 2, 3 days incubation) is > 10 µM.
The like results for `N#Cc1cc(F)ccc1-c1ccc2nc(NCc3cc(Cl)cc(S(N)(=O)=O)c3)nc(NC3(C(F)(F)F)CC3)c2n1` [Example 100, 3-chloro-5-((6-(2-cyano-4-fluorophenyl)-4-(1-(trifluoromethyl)cyclopropyl-amino)pyrido[3,2-d]pyrimidin-2-ylamino)methyl)benzene-sulfonamide] were, in that order, < 100 nM and 1 to 10 µM.
`COc1ccc(-c2ccc3nc(NCc4cccc(F)c4)nc(NC4(C(F)(F)F)CC4)c3n2)cc1S(C)(=O)=O` [Example 105, N^2-(3-fluorobenzyl)-6-(4-methoxy-3-(methylsulfonyl)phenyl)-N^4-(1-(trifluoromethyl)cyclopropyl)pyrido[3,2-d] pyrimidine-2,4-diamine]: in series [1], the concentration giving a half-maximal response (EC50) was < 100 nM. For the same compound, the CC50 at 3 days in series [2] (Table 2, 3 days incubation) was > 10 µM.
In the case of `NS(=O)(=O)c1cc(Cl)cc(CNc2nc(NC3(C(F)(F)F)CC3)c3nc(-c4ccc(NC(=O)C5(C(F)(F)F)CC5)cc4)ccc3n2)c1` [Example 48, 3-chloro-5-((6-(4-(1-(trifluoromethyl)cyclopropyl-carboxamido)phenyl)-4-(1-(trifluoromethyl)cyclopropyl-amino)pyrido[3,2-d]pyrimidin-2-ylamino)methyl)benzene-sulfonamide], the EC50 in series [1] was < 100 nM. This compound displayed a CC50 at 3 days in series [2] (Table 2, 3 days incubation) of 1 to 10 µM.
Turning to `C#Cc1ccc2nc(NCc3ccc(-n4cncn4)cc3)nc(N[C@@H](C)C(F)(F)F)c2n1` [Example 291, (S)-N^2-(4-(1H-1,2,4-triazol-1-yl)benzyl)-6-ethynyl-N^4-(1,1,1-trifluoropropan-2-yl)pyrido [3,2-d]pyrimidine-2,4-diamine], the EC50 in series [1] is < 100 nM. Also, the CC50 at 3 days in series [2] (Table 2, 3 days incubation) is > 10 µM.
The like results for `C[C@@H](Nc1nc(O[C@@H]2C[C@@H]3C[C@@H]3C2)c2nc(C#CC3CC3)ccc2n1)c1ccc(S(N)(=O)=O)cc1` [Example 299, 4-((R)-1-(4-((1S,3r,5R)-bicyclo [3.1.0]hexan-3-yloxy)-6-(2-cyclopropylethynyl)pyrido [3,2-d]pyrimidin-2-ylamino)ethyl)benzenesulfonamide] were, in that order, < 100 nM and 1 to 10 µM.
Taken in the same sequence, the figures for `COc1ccc(-c2ccc3nc(NCc4ccc(-n5cncn5)cc4)nc(NCC(F)(F)F)c3n2)cc1S(N)(=O)=O` [Example 237, 5-(2-(4-(1H-1,2,4-triazol-1-yl)benzylamino)-4-(2,2,2-trifluoroethylamino)pyrido [3,2-d]pyrimidin-6-yl)-2-methoxybenzenesulfonamide] were < 100 nM and > 10 µM.
In turn, `C[C@@H](Nc1nc(OC2CC2)c2nc(-c3ccc(OC(F)F)c(S(C)(=O)=O)c3)ccc2n1)c1ccc(S(N)(=O)=O)cc1` [Example 185, 4-((R)-1-(4-cyclopropoxy-6-(4-(difluoromethoxy)-3-(methylsulfonyl)phenyl)pyrido [3,2-d]pyrimidin-2-ylamino)ethyl)benzenesulfonamide] yielded an EC50 in series [1] of 100 to 250 nM. The CC50 at 3 days in series [2] (Table 2, 3 days incubation) was > 10 µM.
Take `Cc1cc(S(N)(=O)=O)ccc1[C@@H](C)Nc1nc(NC2(C(F)(F)F)CC2)c2nc(-c3ccc(F)cc3)ccc2n1` [Example 117, (R)-4-(1-(6-(4-fluorophenyl)-4-(1-(trifluoromethyl)cyclopropyl-amino)pyrido[3,2-d]pyrimidin-2-ylamino)ethyl)-3-methylbenzene-sulfonamide]: the EC50 in series [1] is < 100 nM. Further, the cytotoxic concentration (CC50) at 3 days in series [2] (Table 2, 3 days incubation) was > 10 µM.
The like results for `COc1ccc(-c2ccc3nc(NCc4ccc(S(N)(=O)=O)cc4)nc(NCC(F)(F)F)c3n2)cc1S(=O)(=O)C1CC1` [Example 157, 4-((6-(3-(cyclopropylsulfonyl)-4-methoxyphenyl)-4-(2,2,2-trifluoroethylamino)pyrido [3,2-d]pyrimidin-2-ylamino)methyl)benzenesulfonamide] were, in that order, < 100 nM and > 10 µM.
Regarding `CS(=O)(=O)c1cccc(-c2ccc3nc(NCc4ccc(S(N)(=O)=O)cc4)nc(OC4CC4)c3n2)c1` [Example 22, 4-{[4-Cyclopropoxy-6-(3-methanesulfonyl-phenyl)-pyrido[3,2-d]pyrimidin-2-ylamino]-methyl}-benzenesulfonamide], the concentration for a half-maximal effect (EC50) in series [1] is < 100 nM. The CC50 at 3 days in series [2] (Table 1, 3 days incubation) was > 25 µM.
Turning to `CCOc1ccc(-c2ccc3nc(NCc4cc(Cl)cc(S(N)(=O)=O)c4)nc(NCC(F)(F)F)c3n2)cn1` [Example 233, 3-chloro-5-((6-(6-ethoxypyridin-3-yl)-4-(2,2,2-trifluoroethylamino)pyrido [3,2-d]pyrimidin-2-ylamino)methyl)benzenesulfonamide], in series [1], the EC50 is < 100 nM. The 50% cytotoxic concentration (CC50) at 3 days in series [2] (Table 2, 3 days incubation) was in the range of 1 to 10 µM.
Take `COc1ccc(-c2ccc3nc(NCc4ccc(-n5cccn5)cc4)nc(NCC(F)(F)F)c3n2)cc1S(N)(=O)=O` [Example 236, 5-(2-(4-(1H-pyrazol-1-yl)benzylamino)-4-(2,2,2-trifluoroethylamino)pyrido [3,2-d]pyrimidin-6-yl)-2-methoxybenzenesulfonamide]: in series [1], the concentration for a half-maximal effect (EC50) was < 100 nM. This compound had a half-maximal cytotoxic concentration (CC50) at 3 days in series [2] (Table 2, 3 days incubation) of 1 to 10 µM.
The like results for `C#Cc1ccc2nc(N[C@H](C)c3ccc(S(N)(=O)=O)cc3)nc(OC3CC3)c2n1` [Example 294, (R)-4-(1-(4-cyclopropoxy-6-ethynylpyrido[3,2-d]pyrimidin-2-ylamino)ethyl)benzene-sulfonamide] were, in that order, < 100 nM and 1 to 10 µM.
Consider `Fc1ccc(-c2ccc3nc(NCc4cccc(-n5cccn5)c4)nc(NCC(F)(F)F)c3n2)cc1` [Example 2, 6-(4-Fluoro-phenyl)-N2-(3-pyrazol-1-yl-benzyl)-N4-(2,2,2-trifluoro-ethyl)-pyrido[3,2-d]pyrimidine-2,4-diamine], for which, in series [1], the concentration giving a half-maximal response (EC50) was < 100 nM. The CC50 at 3 days in series [2] (Table 1, 3 days incubation) was > 25 µM.
With `NS(=O)(=O)c1ccc(CNc2nc(NC3(C(F)(F)F)CC3)c3nc(-c4ccc(OC(F)F)cc4)ccc3n2)cc1` [Example 61, 4-((6-(4-(difluoromethoxy)phenyl)-4-(1-(trifluoromethyl)cyclopropylamino)pyrido[3,2-d]pyrimidin-2-ylamino)methyl) benzenesulfonamide], in series [1], the EC50 was < 100 nM. Moreover, the CC50 at 3 days in series [2] (Table 2, 3 days incubation) is 1 to 10 µM.
On to `C[C@@H](Nc1nc(NC2(C(F)(F)F)CC2)c2nc(-c3cnc(NC4CC4)c(F)c3)ccc2n1)c1ccc(-n2cncn2)cc1` [Example 131, N^2-((R)-1-(4-(1H-1,2,4-triazol-1-yl)phenyl)ethyl)-6-(6-(cyclopropylamino)-5-fluoropyridin-3-yl)-N^4-(1-(trifluoromethyl)cyclopropyl) pyrido[3,2-d]pyrimidine-2,4-diamine], for which, in series [1], the EC50 was 100 to 250 nM. Moreover, the CC50 at 3 days in series [2] (Table 2, 3 days incubation) was 1 to 10 µM.
In the case of `[2H]C([2H])([2H])C([2H])([2H])Oc1ccc(-c2ccc3nc(N[C@H](C)c4ccc(-n5cncn5)cc4)nc(NCC(F)(F)F)c3n2)cn1` [Example 255, N^2-((R)-1-(4-(1H-1,2,4-triazol-1-yl)phenyl)ethyl)-6-(6-pentadeuteroethoxypyridin-3-yl)-N^4-(2,2,2-trifluoroethyl) pyrido[3,2-d]pyrimidine-2,4-diamine], the EC50 in series [1] is < 100 nM. The compound further had a cytotoxic concentration (CC50) at 3 days in series [2] (Table 2, 3 days incubation) of 1 to 10 µM.
As for `COc1ccc(-c2ccc3nc(NCc4cccc(C(F)(F)F)c4)nc(NC4(C(F)(F)F)CC4)c3n2)cc1S(C)(=O)=O` [Example 113, N^2-(3-(trifluoromethyl)benzyl)-6-(4-methoxy-3-(methylsulfonyl)phenyl)-N^4-(1-(trifluoromethyl)cyclopropyl)pyrido[3,2-d] pyrimidine-2,4-diamine], in series [1], the concentration for a half-maximal effect (EC50) lay in the range of 100 to 250 nM. Further, in series [2] (Table 2, 3 days incubation), the CC50 at 3 days is > 10 µM.
Taken in the same sequence, the figures for `CS(=O)(=O)c1cccc(-c2ccc3nc(NC4CC4)nc(NCC(F)(F)F)c3n2)c1` [Example 138, N^2-cyclopropyl-6-(3-(methylsulfonyl)phenyl)-N^4-(2,2,2-trifluoroethyl)pyrido [3,2-d]pyrimidine-2,4-diamine] were 100 to 250 nM and > 10 µM.
The like results for `CC1(Oc2nc(NCc3ccc(-n4cncn4)cc3)nc3ccc(-c4ccc(OC5CCC5)nc4)nc23)CC1` [Example 249, N-(4-(1H-1,2,4-triazol-1-yl)benzyl)-6-(6-cyclobutoxy-pyridin-3-yl)-4-(1-methylcyclo-propoxy)pyrido[3,2-d] pyrimidin-2-amine] were, in that order, < 100 nM and 1 to 10 µM.
The compound `CC[C@@H](Nc1nc(NCC(F)(F)F)c2nc(-c3ccc(F)cc3)ccc2n1)c1ccccc1S(N)(=O)=O` [Example 11, (R)-2-{1-[6-(4-Fluoro-phenyl)-4-(2,2,2-trifluoro-ethylamino)-pyrido[3,2-d]pyrimidin-2-ylamino]-propyl}-benzenesulfonamide] yielded an EC50 in series [1] of 250 to 2000 nM. The cytotoxic concentration (CC50) at 3 days in series [2] (Table 1, 3 days incubation) was > 25 µM.
In the case of `CC1(Oc2nc(NCc3ccc(-n4cncn4)cc3)nc3ccc(-c4ccc(OC(F)F)c(S(C)(=O)=O)c4)nc23)CC1` [Example 191, N-(4-(1H-1,2,4-triazol-1-yl)benzyl)-6-(4-(difluoro-methoxy)-3-(methylsulfonyl)phenyl)-4-(1-methylcyclo-propoxy)pyrido[3,2-d] pyrimidin-2-amine], in series [1], the EC50 is < 100 nM. Further, the cytotoxic concentration (CC50) at 3 days in series [2] (Table 2, 3 days incubation) is > 10 µM.

The values above are taken from patent US8536187B2 (Gilead Sciences, Inc., priority 2008, dated 2013).
